Measured values reported in US10219794B2, “Method of treating pleural abnormality” (National Taiwan University, priority 2014, dated 2019).

Test system: TC-1 cell line (mouse lung cancer cell line)
Format: cell-based
Conditions: TC-1 cells, released from PCL membrane
Method: In one embodiment, the drug release rates of different kinds of the biodegradable polymeric membrane were tested. There were 6 experimental groups and 1 control group. Control group: TCPS (Tissue Culture Polystyrene); experimental group 1: the non-porous PCL membrane without any drugs; experimental group 2: the non-porous PCL membrane with 1 μg/ml of Cisplatin (0.3 μg/well); experimental group 3: the non-porous PCL membrane with 10 μg/ml of Cisplatin (3 μg/well); experimental group 4: the porous PCL membrane without any drugs; experimental group 5: the porous PCL membrane with 1 μg/ml of Cisplatin (0.3 μg/well); and experimental group 6: the porous PCL membrane with 10 μg/ml of Cisplatin (3 μg/well). The pores of the above porous PCL membrane were created by 0.01 g/mL of NaCl.
In this embodiment, different kinds of membranes with drugs were cultured in TC-1 cell line (mouse lung cancer cell line) for three days, and the cell growth and cytotoxicity were measured by using AlamarBlue™. The absorbance was at 570 nm and 600 nm as the background.

Compound: N.N.[Cl][Pt][Cl] [cisplatin]
- killing cancer cells: capability of killing cancer cells
